Results as given in patent US20250090437A1, “COSMETIC COMPOUNDING AGENT, COSMETIC AND PRODUCTION METHOD THEREOF” (MIYOSHI OIL & FAT CO., LTD., priority 2019, published 2025).

Test: Water retention property and adherability with respect to healthy hair
Set-up: species or system human

For `OCC(O)CO` [Compound A52, glycerin, reference compound], the Post-test moisture rate (healthy hair immersed 60 min in 80 wt % aqueous solution, after 24 hours at 40° C., 35 to 40% RH, pre-test 7.6%) was 5.3%, the Compound adhesion rate (healthy hair immersed 60 min in 80 wt % aqueous solution, listed as B26) was 1.0% and the “Rate of reduction in moisture” value (healthy hair, 80 wt % aqueous solution, 24 hours at 40° C., 35 to 40% RH) was 30%.
